# Where “and” joins values, the source holds several entries; their conditions need not be identical. Identical values can stand only once. Like-named read-outs stand apart in the source and are kept apart here.
# Key:
# [1] = tested on: WI‐26 VA4 cells; test: CellTiter‐Glo assay (cytotoxicity)
# [2] = CellTiter‐Glo assay (cytotoxicity); conditions: human, WI-26 VA4 cells
# [3] = tested on: TNT Quick Coupled Transcription/Translation System (luciferase synthesis); assay type: biochemical
# [4] = log(inhibitor) vs. response, variable slope (four parameters), concentration in nM
structure (smiles),measurement,setting,value
Cc1c(Br)cnc2c1ncn2CC(=O)C[C@H]1NCCC[C@@H]1O [DWN11761],activity at 0.3 µM,"[1]; Homo sapiens, WI26VA4, read-out: CellTiter-Glo % of control, 300 nM, Experiment #1, replicates",56.9%
same,activity at 1 µM,"[1]; Homo sapiens, WI26VA4, read-out: CellTiter-Glo % of control, 1000 nM, Experiment #1, replicates",24.9%
same,activity at 1 µM,"[1]; Homo sapiens, WI26VA4, read-out: CellTiter-Glo % of control, 1000 nM, Experiment #2, replicates",12.4%
same,activity at 3 µM,"[1]; Homo sapiens, WI26VA4, read-out: CellTiter-Glo % of control, 3000 nM, Experiment #1, replicates",39.6%
same,activity at 3 µM,"[1]; Homo sapiens, WI26VA4, read-out: CellTiter-Glo % of control, 3000 nM, Experiment #2, replicates",30.3%
same,activity at 10 µM,"[1]; Homo sapiens, WI26VA4, read-out: CellTiter-Glo % of control, 10000 nM, Experiment #1, replicates",14.4%
same,activity at 10 µM,"[1]; Homo sapiens, WI26VA4, read-out: CellTiter-Glo % of control, 10000 nM, Experiment #2, replicates",8.9%
same,activity at 30 µM,"[1]; Homo sapiens, WI26VA4, read-out: CellTiter-Glo % of control, 30000 nM, Experiment #1, replicates",6.42%
same,activity at 30 µM,"[1]; Homo sapiens, WI26VA4, read-out: CellTiter-Glo % of control, 30000 nM, Experiment #2, replicates",4.58%
same,activity at 100 µM,"[1]; Homo sapiens, WI26VA4, read-out: CellTiter-Glo % of control, 100000 nM, Experiment #1, replicates",2.45%
same,activity at 100 µM,"[1]; Homo sapiens, WI26VA4, read-out: CellTiter-Glo % of control, 100000 nM, Experiment #2, replicates",1.52%
same,activity at 0.0001 µM,"[1]; Homo sapiens, WI26VA4, read-out: CellTiter-Glo % of control, average, 0.1 nM, average",102%
same,activity at 0.0003 µM,"[1]; Homo sapiens, WI26VA4, read-out: CellTiter-Glo % of control, average, 0.3 nM, average",105%
same,activity at 0.001 µM,"[1]; Homo sapiens, WI26VA4, read-out: CellTiter-Glo % of control, average, 1 nM, average",96.9%
same,activity at 0.003 µM,"[1]; Homo sapiens, WI26VA4, read-out: CellTiter-Glo % of control, average, 3 nM, average",82.5%
same,activity at 0.01 µM,"[1]; Homo sapiens, WI26VA4, read-out: CellTiter-Glo % of control, average, 10 nM, average",91.2%
same,activity at 0.03 µM,"[1]; Homo sapiens, WI26VA4, read-out: CellTiter-Glo % of control, average, 30 nM, average",86.4%
same,activity at 0.1 µM,"[1]; Homo sapiens, WI26VA4, read-out: CellTiter-Glo % of control, average, 100 nM, average",66.3%
same,activity at 0.3 µM,"[1]; Homo sapiens, WI26VA4, read-out: CellTiter-Glo % of control, average, 300 nM, average",51.8%
same,activity at 1 µM,"[1]; Homo sapiens, WI26VA4, read-out: CellTiter-Glo % of control, average, 1000 nM, average",20.8%
same,activity at 3 µM,"[1]; Homo sapiens, WI26VA4, read-out: CellTiter-Glo % of control, average, 3000 nM, average",32.6%
same,activity at 10 µM,"[1]; Homo sapiens, WI26VA4, read-out: CellTiter-Glo % of control, average, 10000 nM, average",11.2%
same,activity at 30 µM,"[1]; Homo sapiens, WI26VA4, read-out: CellTiter-Glo % of control, average, 30000 nM, average",5.72%
same,activity at 100 µM,"[1]; Homo sapiens, WI26VA4, read-out: CellTiter-Glo % of control, average, 100000 nM, average",1.91%
same,CellTiter-Glo LogIC50 (best-fit value),[1]; [4],2.468
same,CC50 at 72 h,[2],294 nM
same,TNT-luciferase % of control,"[3]; 6 nM, Experiment #1, replicates, 0.006 µM",103.28 % of control and 100.82 % of control and 110.66 % of control
same,TNT-luciferase % of control,"[3]; 6 nM, Experiment #2, replicates, 0.006 µM",86.60 % of control and 91.24 % of control and 93.56 % of control
same,TNT-luciferase % of control,"[3]; 6 nM, Experiment #3, replicates, 0.006 µM",100.46 % of control and 97.13 % of control and 93.79 % of control
same,"TNT-luciferase % of control, average",[3]; 6 nM,97.50 % of control
same,TNT-luciferase % of control,"[3]; 20 nM, Experiment #1, replicates, 0.02 µM",108.20 % of control and 109.84 % of control (2×)
same,TNT-luciferase % of control,"[3]; 20 nM, Experiment #2, replicates, 0.02 µM",85.82 % of control and 94.33 % of control and 98.20 % of control
same,TNT-luciferase % of control,"[3]; 20 nM, Experiment #3, replicates, 0.02 µM",98.25 % of control and 93.99 % of control and 91.88 % of control
same,"TNT-luciferase % of control, average",[3]; 20 nM,98.93 % of control
same,TNT-luciferase % of control,"[3]; 60 nM, Experiment #1, replicates, 0.06 µM",130.33 % of control and 132.79 % of control and 131.97 % of control
same,TNT-luciferase % of control,"[3]; 60 nM, Experiment #2, replicates, 0.06 µM",90.46 % of control and 98.97 % of control and 95.10 % of control
same,TNT-luciferase % of control,"[3]; 60 nM, Experiment #3, replicates, 0.06 µM",100.65 % of control and 91.36 % of control and 86.32 % of control
same,"TNT-luciferase % of control, average",[3]; 60 nM,106.44 % of control
same,TNT-luciferase % of control,"[3]; 200 nM, Experiment #1, replicates, 0.2 µM",106.56 % of control and 109.84 % of control and 110.66 % of control
same,TNT-luciferase % of control,"[3]; 200 nM, Experiment #2, replicates, 0.2 µM",68.51 % of control and 71.29 % of control and 70.98 % of control
same,TNT-luciferase % of control,"[3]; 200 nM, Experiment #3, replicates, 0.2 µM",96.73 % of control and 90.18 % of control and 101.79 % of control
same,"TNT-luciferase % of control, average",[3]; 200 nM,91.84 % of control
same,TNT-luciferase % of control,"[3]; 600 nM, Experiment #1, replicates, 0.6 µM",44.18 % of control and 45.33 % of control and 50.74 % of control
same,TNT-luciferase % of control,"[3]; 600 nM, Experiment #2, replicates, 0.6 µM",46.24 % of control and 47.63 % of control and 53.81 % of control
same,TNT-luciferase % of control,"[3]; 600 nM, Experiment #3, replicates, 0.6 µM",54.77 % of control and 51.07 % of control and 57.11 % of control
same,"TNT-luciferase % of control, average",[3]; 600 nM,50.10 % of control
same,TNT-luciferase % of control,"[3]; 2000 nM, Experiment #1, replicates, 2 µM",2.25 % of control and 2.32 % of control and 2.42 % of control
same,TNT-luciferase % of control,"[3]; 2000 nM, Experiment #2, replicates, 2 µM",3.17 % of control and 3.09 % of control and 3.97 % of control
same,TNT-luciferase % of control,"[3]; 2000 nM, Experiment #3, replicates, 2 µM",3.31 % of control and 3.19 % of control and 3.30 % of control
same,"TNT-luciferase % of control, average",[3]; 2000 nM,3.00 % of control
same,TNT-luciferase % of control,"[3]; 6000 nM, Experiment #1, replicates, 6 µM",0.05 % of control and 0.047 % of control and 0.06 % of control
same,TNT-luciferase % of control,"[3]; 6000 nM, Experiment #2, replicates, 6 µM",0.15 % of control and 0.14 % of control (2×)
same,TNT-luciferase % of control,"[3]; 6000 nM, Experiment #3, replicates, 6 µM",0.14 % of control (2×) and 0.12 % of control
same,"TNT-luciferase % of control, average",[3]; 6000 nM,0.11 % of control
same,TNT-luciferase % of control,"[3]; 20000 nM, Experiment #1, replicates, 20 µM",-0.0091 % of control and -0.014 % of control and -0.00199 % of control
same,TNT-luciferase % of control,"[3]; 20000 nM, Experiment #2, replicates, 20 µM",0.00206 % of control and -0.00211 % of control and -0.00412 % of control
same,TNT-luciferase % of control,"[3]; 20000 nM, Experiment #3, replicates, 20 µM",0.02 % of control and -0.0067 % of control and 0.00433 % of control
same,"TNT-luciferase % of control, average",[3]; 20000 nM,-0.00128 % of control
same,TNT-luciferase LogIC50 (best-fit value),[3]; [4],2.775
same,IC50,"[3]; log(inhibitor) vs. response, variable slope (four parameters), unit from head concentration (nM), read-out: TNT-luciferase IC50 (best-fit value)",595 nM
